Experimental data as given in patent US11446304B2, “CDC-7-inhibitor compounds and use thereof for the treatment of neurological conditions” (CONSEJO SUPERIOR DE INVESTIGACIONES CIENTIFICAS (CSIC), priority 2017, dated 2022).

Key:
human recombinant CDC7 = target: T1, human recombinant CDC7 (Homo sapiens, UniProt O00311); assay: CDC7 inhibition measurement (ADP-Glo technology); format: biochemical; settings: ATP 10 μM, 60 min at room temperature; read-out: CDC7 ADP-Glo ™ CI50
T1 construct: purchased Promega V5089
T1 sequence (O00311 whole entry): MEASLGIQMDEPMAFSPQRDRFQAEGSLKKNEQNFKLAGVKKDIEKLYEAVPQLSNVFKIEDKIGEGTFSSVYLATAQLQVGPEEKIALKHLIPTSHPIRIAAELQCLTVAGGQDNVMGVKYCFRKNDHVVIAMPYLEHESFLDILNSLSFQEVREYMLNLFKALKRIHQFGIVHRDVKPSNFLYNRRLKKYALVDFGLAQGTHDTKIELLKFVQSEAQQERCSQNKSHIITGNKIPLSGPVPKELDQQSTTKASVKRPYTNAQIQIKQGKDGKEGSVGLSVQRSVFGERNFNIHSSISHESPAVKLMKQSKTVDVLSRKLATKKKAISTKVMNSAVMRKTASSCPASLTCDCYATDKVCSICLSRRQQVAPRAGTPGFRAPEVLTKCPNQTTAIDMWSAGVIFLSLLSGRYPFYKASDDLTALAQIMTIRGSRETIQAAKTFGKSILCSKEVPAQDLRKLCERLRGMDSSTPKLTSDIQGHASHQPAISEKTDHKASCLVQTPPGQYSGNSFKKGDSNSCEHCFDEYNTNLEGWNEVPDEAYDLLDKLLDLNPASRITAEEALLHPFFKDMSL
T1 sequence (Q9UBU7 whole entry partner): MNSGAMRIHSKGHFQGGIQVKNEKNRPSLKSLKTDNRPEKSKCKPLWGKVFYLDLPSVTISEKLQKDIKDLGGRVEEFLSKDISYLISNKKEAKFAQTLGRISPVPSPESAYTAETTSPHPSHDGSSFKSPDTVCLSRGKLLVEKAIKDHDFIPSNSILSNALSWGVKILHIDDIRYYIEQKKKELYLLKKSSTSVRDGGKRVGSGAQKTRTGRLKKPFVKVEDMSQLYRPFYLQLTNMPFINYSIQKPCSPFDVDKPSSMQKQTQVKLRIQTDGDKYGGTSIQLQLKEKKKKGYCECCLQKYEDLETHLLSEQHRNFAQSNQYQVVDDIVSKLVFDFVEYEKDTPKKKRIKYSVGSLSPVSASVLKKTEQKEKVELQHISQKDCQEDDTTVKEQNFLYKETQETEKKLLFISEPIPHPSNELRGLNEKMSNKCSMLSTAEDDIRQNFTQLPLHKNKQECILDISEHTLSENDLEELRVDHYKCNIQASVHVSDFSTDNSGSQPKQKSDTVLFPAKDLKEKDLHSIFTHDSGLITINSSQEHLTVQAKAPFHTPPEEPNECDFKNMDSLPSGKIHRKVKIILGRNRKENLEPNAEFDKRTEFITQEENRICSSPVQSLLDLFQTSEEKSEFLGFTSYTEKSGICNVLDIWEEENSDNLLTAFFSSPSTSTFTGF
Description: The method used is a non-radioactive enzyme inhibition assay using human recombinant CDC7. It is based on luminometric quantification of inhibition using the ADP-Glo™ Kinase Kit. In this test the luminescent signal correlates positively with the amount of adenosine diphosphate (ADP) and the activity of the kinase. […]
CDC7 enzyme inhibition studies were conducted using the promega kit: ADP-Glo™ Kinase Assay+CDC7/DBF4 Kinase Enzyme System (Catalogue No. V5089). ATP and other reagents were purchased in Sigma-Aldrich (St. Louis, Mo.). The trials were performed in a buffer solution using 96-well plates. The compound to be tested (5 μL, 40 μM dissolved in DMSO 4%) was added to each well followed by the enzyme (5 μL, 25 ng/well), ATP (5 μL, final concentration in well 10 μM) and PDKtidE (5 μL, 4 μg/well). It was then incubated for 60 minutes at room temperature and the reagent ADP-Glo™ (20 μL) was added and incubated again for 40 min at room temperature. After incubation, the kinase detection agent (40 μL) was added and incubated for 30 min at room temperature. Finally, the luminescence (integration time of 0.5-1 sec) was measured using a POLARstar Optima multimode reader polarimeter. Inhibition activities were calculated as a function of maximum activity, measured in the absence of inhibitor.

[1] = target: human recombinant CDC7/DBF4 (Homo sapiens, UniProt O00311); assay: CDC7 inhibition measurement (LanthaScreen Eu kinase binding, FRET); settings: CDC7/DBF4 0.5 nM, 60 min at room temperature; read-out: CDC7 Lantha ™ CI50
Chain of human recombinant CDC7/DBF4 (O00311 whole entry): as the sequence (O00311 whole entry) above
Chain of human recombinant CDC7/DBF4 (Q9UBU7 whole entry partner): as the sequence (Q9UBU7 whole entry partner) above
Source text: The LanthaScreen Eu kinases inhibition assay uses an Alexa marker Fluor™ that binds to a kinase and is detected by the addition of an Eu-marked antibody. The binding of the marker and the antibody to the kinase results in a high degree of FRET, while the displacement of the marker by an inhibitor results in a loss of FRET. Unlike many other kinase activity tests, this is a simple mix and read test, with no developmental stages. This test method has been developed by Life Technologies and identifies competitive ATP kinase inhibitors, making them suitable for the detection of any compound that binds to the ATP site.
The compounds are evaluated at 1% DMSO (final) in the well. A mixture of human recombinant CDC7/DBF4 (0.5 nM), Eu-antiGST antibody (2 nM) and AlexaFluor marker (1 nM) has been used in a buffer of 50 mM HEPES pH 7.5, 0.01% BRIJ-35, 10 mM MgCl2, 1 mM EGTA in white plates of […], low volume, coded (Greiner cat. #784207), 160 nL (100×100% DMSO compound), 3.84 μL (buffer with CDC7/DBF4), 8.0 μL (antibody), 4.0 μL (marker) are added. Agitate 30 s and incubate at room temperature for 60 min. Then measure the fluorescence in the plate reader and analyze the data (Table 1).

[2] = PAMPA blood-brain barrier permeation (porcine brain lipid); format: in vitro ADME; settings: for Papp at 2.5 h: PAMPA-BHE, PBS pH 7.4/EtOH 70:30, 2 h 30 min at 25° C., mean ± SD, read-out: Pe; for PAMPA prediction of central nervous system (CNS) penetration: from Pe in PAMPA-BHE
Source text: An essential requirement for drugs for the treatment of neurodegenerative diseases is the ability to cross the blood-brain barrier (BBB), as otherwise they could not act on the target of interest. Therefore, for compounds that are not permeable or located in the area of uncertainty, it may be necessary to properly convey a pharmaceutical formulation through methods known to an expert in the field, such as encapsulation. This capability can be predicted in vitro using a method known by the acronym PAMPA (Parallel Artificial Membrane Permeability Assay) described by Di et al (Di, L.; Kerns, E. H.; Fan, K.; McConnell, O. J.; Carter, G. T. Eur. J. Med. Chem. 2003, 38 (3), 223-232) and which has subsequently been fine-tuned in our research group. This method allows predicting the effective permeability through artificial membranes by means of a passive diffusion process.
First of all, it is necessary to validate the method, for which 10 commercial compounds are used whose penetration capacity in the central nervous system (CNS) is known and which are to be specified below, obtaining in this case a good linear correlation between the experimental permeability values (Pe) and those described (FIG. 1). This correlation line obtained following the pattern described in the bibliography allows establishing the limits to predict whether or not a compound can cross the blood-brain barrier. Thus, a compound is considered BBB permeable (SNC+) if it has a permeability>4.48×10^−6 cm-s^−1.
For the procedure, between 3-5 mg of caffeine, desipramine, enoxacin, hydrocortisone, ofloxacin, piroxicam and testosterone, 12 mg of promazine and 25 mg of atenolol and verapamil were taken and dissolved in EtOH (1000 μL). 100 μL of these solutions were taken and EtOH (1400 μL) and phosphate buffer (PBS) pH=7.4 (3500 μL) were added in order to achieve a final EtOH concentration of 30% v/v in solution. Finally, the dissolutions were filtered.
On the other hand, a PBS/EtOH solution (70:30) was added to each well of the acceptance plate (180 μL). The donor plate was impregnated with a porcine brain lipid solution (4 μL) dissolved in dodecane (20 mg mL^−1). After 5 min, dissolution of each compound was added to this plate (180 μL).
Of the compounds 1 to 10 evaluated, 1-2 mg were taken and dissolved in EtOH (1500 μL) and phosphate buffer (PBS) pH=7.4 (3500 μL), filtered and added to the donor plate. With these solutions, the wavelengths at which the compounds absorb are determined and the initial absorbance levels at these wavelengths are measured using a UV absorbance reader. Each sample was analyzed from two to five wavelengths, in three wells and in two independent experiments.
The donor plate was then deposited on the acceptor forming a kind of “sandwich” and incubated for 2 hours and 30 minutes at 25° C. In this way, the compounds will pass from the donor plate to the acceptor plate through the porcine brain lipid by passive diffusion. After that time, the donor plate is carefully removed and the concentration and final absorbance of both commercial and synthesized compounds is determined. The results obtained are expressed as the mean of the measurements [standard deviation (SD)] of the different experiments carried out and are shown in table 2.

[3] = system: human SH-SY5Y neuroblastoma cells; assay: Neuroprotective effect against ethacrynic acid, cell viability by MTT; format: cell-based; settings: ethacrynic acid 20 μM for 12 hours, inhibitors at 10 μM, FIG. 2
Description: FIG. 2. […] The data represent the mean of four different±SEM experiments (*p<0.05).
The human neuroblastoma cell line SH-SY5Y was cultured at 37° C. with 5% CO2 in DMEN medium (Dulbecco's Modified Eagle Medium) enriched with L-glutamine (2 mM), 1% non-essential amino acids, 1% Penicillin/Estreptomycin and 10% fetal bobin serum. In the semiconfluence state, the cells were treated with CDC7 inhibitors (compounds 1 and 8) at different concentrations for 1.30 hours post-addition of the causative agent of TPD-43 phosphorylation; ethacrynic acid ([…]) (Sigma). […] J Immunol Methods. 1987; 89:271-7) and levels of western blot phosphorylated TDP-43 (FIG. 2).

[4] = system: TDP-43 phosphorylation (S409/410); assay: Effect on phosphorylation of TDP-43 (western blot); format: cell-based, human; settings: SH-SY5Y cells, 24 h incubation with ethacrynic acid, FIG. 3
Description: FIG. 3. Sample of the effect of CDC7 inhibitors (compounds 1, 8, 9 and 13) on TDP-43 phosphorylation. Quantification and representation of phosphorylated TDP-43 levels by western blot.
To evaluate the levels of TDP-43 phosphorylated in the presence of CDC7 inhibitors (compounds 1 and 8), the cells after 24 h of incubation with ethacrylic acid were washed with PBS and then cold lysed with lysis buffer (50 mM Tris pH 7.4, 150 mM NaCl, 50 mM NaF, 1% Nonidet P-40 and Protease and phosphatase inhibitors (Roche)). The collected cell extracts were centrifuged for 10 minutes at 4,000 rpm. Protein quantification was performed with the Pierce BCA protein assay kit (Thermo Scientific). 10 μg of protein were loaded into the polyacrylamide gel with SDS and subsequently transferred to a polyvinylidene fluoride (PVDF) membrane (Millipore).

Row | IC50 (human recombinant CDC7) | IC50 [1] | Papp at 2.5 h [2] | melting point | Compound | PAMPA prediction of central nervous system (CNS) penetration [2] | neuroprotective effect (cell viability) [3] | phosphorylated TDP-43 levels [4]
1 | 6.74 ± 0.35 µM | 0.125 µM | 6.2 ± 1.1 ×10⁻⁶ cm/s |  | c1ccc(CSc2ncnc3[nH]cnc23)cc1 [Compound 1, 6-(benzylthio)-9H-purine] | SNC+ (a compound is considered BBB permeable (SNC+) if it has a permeability>4.48×10^−6 cm-s^−1) | neuroprotective effect | reduce phosphorylation of TDP-43
2 | 5.21 ± 0.38 µM | 0.172 µM | 15.1 ± 0.6 ×10⁻⁶ cm/s | 167 to 169 °C | Clc1cccc(CSc2ncnc3[nH]cnc23)c1 [Compound 8, 6-((3-Chlorobenzyl)thio)-9H-purine] | SNC+ (a compound is considered BBB permeable (SNC+) if it has a permeability>4.48×10^−6 cm-s^−1) | neuroprotective effect | reduce phosphorylation of TDP-43
3 | 3.34 ± 0.27 µM | 0.086 µM | 13.8 ± 2.5 ×10⁻⁶ cm/s | 185 to 187 °C | Ic1cccc(CSc2ncnc3[nH]cnc23)c1 [Compound 9, 6-((3-Iodobenzyl)thio)-9H-purine] | SNC+ (a compound is considered BBB permeable (SNC+) if it has a permeability>4.48×10^−6 cm-s^−1) | neuroprotective effect | 
4 | 6.24 ± 0.99 µM | 0.275 µM | 13.1 ± 0.1 ×10⁻⁶ cm/s | 209 to 211 °C | Brc1ccccc1CSc1ncnc2[nH]cnc12 [Compound 13, 6-((2-bromobenzyl)thio)-9H-purine] | SNC+ (a compound is considered BBB permeable (SNC+) if it has a permeability>4.48×10^−6 cm-s^−1) | neuroprotective effect | 
